Measurements reported in paper doi:10.1101/2025.10.23.684218v2, “Development of a dual chemical probe for the USP16 and HDAC6 zinc-finger ubiquitin-binding domain” (biorxiv, 2025).
Where two headings read alike, the source gives them in different places.

Columns and labels:
[1] = biological target: T1, HDAC6-UBD (HDAC6 1109-1215) (Homo sapiens, UniProt Q9UBN7); assay: SPR, steady state; assay type: binding
T1 sequence (Q9UBN7 1109-1215): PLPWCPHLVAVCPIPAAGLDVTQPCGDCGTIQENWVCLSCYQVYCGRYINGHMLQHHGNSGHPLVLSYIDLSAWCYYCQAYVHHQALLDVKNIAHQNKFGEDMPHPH

[2] = biological target: USP16-UBD (USP16 25-185) (Homo sapiens, UniProt Q9Y5T5); assay: SPR, steady state; assay type: binding
[3] = biological target: T2, USP33 (Homo sapiens, UniProt Q8TEY7); assay: biochemical; parameters: SPR, steady-state binding to immobilised biotinylated UBD proteins
T2 construct: UBD, residues 29-134
T2 sequence (Q8TEY7 1-942): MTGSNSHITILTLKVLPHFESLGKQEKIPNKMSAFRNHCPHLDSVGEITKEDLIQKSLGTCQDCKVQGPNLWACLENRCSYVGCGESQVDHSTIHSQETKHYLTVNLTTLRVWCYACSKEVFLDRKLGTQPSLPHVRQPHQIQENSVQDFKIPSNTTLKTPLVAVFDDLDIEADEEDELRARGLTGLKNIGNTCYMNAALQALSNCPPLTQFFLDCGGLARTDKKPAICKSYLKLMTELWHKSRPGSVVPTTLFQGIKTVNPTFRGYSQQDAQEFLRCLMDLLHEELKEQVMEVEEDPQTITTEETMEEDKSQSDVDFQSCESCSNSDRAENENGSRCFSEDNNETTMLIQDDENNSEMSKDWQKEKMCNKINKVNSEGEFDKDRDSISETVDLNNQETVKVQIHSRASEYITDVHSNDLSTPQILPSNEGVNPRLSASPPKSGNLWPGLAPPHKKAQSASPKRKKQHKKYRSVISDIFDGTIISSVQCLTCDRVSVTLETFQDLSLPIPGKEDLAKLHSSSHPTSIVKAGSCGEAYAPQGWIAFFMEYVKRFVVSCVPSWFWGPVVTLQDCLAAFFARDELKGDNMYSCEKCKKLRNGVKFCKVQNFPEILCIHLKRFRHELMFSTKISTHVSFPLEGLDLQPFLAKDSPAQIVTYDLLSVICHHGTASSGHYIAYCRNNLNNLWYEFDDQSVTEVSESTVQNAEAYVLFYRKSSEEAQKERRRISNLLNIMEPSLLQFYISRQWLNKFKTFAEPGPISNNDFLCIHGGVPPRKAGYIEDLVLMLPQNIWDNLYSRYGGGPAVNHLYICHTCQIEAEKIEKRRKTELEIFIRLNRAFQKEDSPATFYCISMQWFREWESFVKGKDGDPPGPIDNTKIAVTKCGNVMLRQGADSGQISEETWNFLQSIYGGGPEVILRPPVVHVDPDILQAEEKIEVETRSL

[4] = biological target: T3, USP5 (Homo sapiens, UniProt P45974); assay: biochemical; parameters: SPR, steady-state binding to immobilised biotinylated UBD proteins
T3 construct: UBD, residues 171-290
T3 sequence (P45974 1-858): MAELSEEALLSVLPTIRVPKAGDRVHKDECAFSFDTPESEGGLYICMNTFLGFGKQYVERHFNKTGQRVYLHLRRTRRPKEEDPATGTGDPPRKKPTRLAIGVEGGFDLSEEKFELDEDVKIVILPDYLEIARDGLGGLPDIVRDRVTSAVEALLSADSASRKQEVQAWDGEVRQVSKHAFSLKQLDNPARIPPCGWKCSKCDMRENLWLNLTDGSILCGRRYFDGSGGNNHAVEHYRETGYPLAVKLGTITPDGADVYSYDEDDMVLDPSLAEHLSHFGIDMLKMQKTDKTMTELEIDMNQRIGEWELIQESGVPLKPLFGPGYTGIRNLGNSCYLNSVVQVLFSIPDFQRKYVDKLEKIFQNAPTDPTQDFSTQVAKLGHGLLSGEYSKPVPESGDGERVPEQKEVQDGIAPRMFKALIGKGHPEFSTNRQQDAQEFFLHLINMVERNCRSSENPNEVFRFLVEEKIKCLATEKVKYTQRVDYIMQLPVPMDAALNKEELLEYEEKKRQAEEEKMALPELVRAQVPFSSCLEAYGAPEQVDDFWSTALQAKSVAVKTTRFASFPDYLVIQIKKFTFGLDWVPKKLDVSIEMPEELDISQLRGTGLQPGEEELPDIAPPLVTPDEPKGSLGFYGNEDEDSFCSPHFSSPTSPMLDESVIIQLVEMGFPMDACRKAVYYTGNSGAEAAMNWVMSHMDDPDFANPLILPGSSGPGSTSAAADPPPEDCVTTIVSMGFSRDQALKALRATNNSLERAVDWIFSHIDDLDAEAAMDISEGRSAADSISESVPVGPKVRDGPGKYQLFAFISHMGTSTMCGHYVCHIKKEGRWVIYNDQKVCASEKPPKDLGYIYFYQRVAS

[5] = biological target: T4, USP51 (Homo sapiens, UniProt Q70EK9); assay: biochemical; parameters: SPR, steady-state binding to immobilised biotinylated UBD proteins
T4 construct: UBD, residues 176-305
T4 sequence (Q70EK9 1-711): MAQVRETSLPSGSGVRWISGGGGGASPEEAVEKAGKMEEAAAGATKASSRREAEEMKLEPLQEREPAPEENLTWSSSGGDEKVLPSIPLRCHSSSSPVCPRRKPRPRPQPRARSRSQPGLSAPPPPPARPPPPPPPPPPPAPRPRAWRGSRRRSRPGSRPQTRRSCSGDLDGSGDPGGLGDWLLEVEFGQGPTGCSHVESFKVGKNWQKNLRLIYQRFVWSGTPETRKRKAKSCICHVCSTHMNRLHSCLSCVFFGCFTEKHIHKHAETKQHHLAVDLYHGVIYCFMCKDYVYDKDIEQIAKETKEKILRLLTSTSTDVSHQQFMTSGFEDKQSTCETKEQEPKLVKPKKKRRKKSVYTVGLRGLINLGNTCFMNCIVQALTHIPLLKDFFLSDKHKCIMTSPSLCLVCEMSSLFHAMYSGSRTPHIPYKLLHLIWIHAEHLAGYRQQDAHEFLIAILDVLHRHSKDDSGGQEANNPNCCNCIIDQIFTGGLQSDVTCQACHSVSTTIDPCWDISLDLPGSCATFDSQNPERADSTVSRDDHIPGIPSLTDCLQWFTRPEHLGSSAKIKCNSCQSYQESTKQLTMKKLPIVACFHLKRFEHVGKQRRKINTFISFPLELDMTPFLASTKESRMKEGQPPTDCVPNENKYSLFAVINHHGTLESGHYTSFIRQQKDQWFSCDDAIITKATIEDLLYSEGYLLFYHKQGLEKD

[6] = read-out: Probe KD (nM) SGC-UBD1031
[7] = read-out: Negative Control KD (nM) SGC-UBD1031N

Chain of USP16-UBD (USP16 25-185) (Q9Y5T5 25-185): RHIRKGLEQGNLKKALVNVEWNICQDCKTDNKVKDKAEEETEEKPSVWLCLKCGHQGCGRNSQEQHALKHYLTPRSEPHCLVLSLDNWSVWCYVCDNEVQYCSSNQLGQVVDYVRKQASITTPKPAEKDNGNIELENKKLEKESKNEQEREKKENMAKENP

Structure (SMILES)	Kd [1] [µM]	Kd [2] [µM]	Kd [3, 6] [nM]	Kd [4, 6] [nM]	Kd [5, 6] [nM]	Kd [3, 7] [nM]	Kd [4, 7] [nM]	Kd [5, 7] [nM]
C[C@H](NC(=O)Cn1c(CCC(=O)O)nc2c(Cl)cccc2c1=O)c1c(F)cccc1F [compound 15, (S)-3-(8-chloro-3-(2-((1-(2,6-difluorophenyl)ethyl)amino)-2-oxoethyl)-4-oxo-3,4-dihydroquinazolin-2-yl)propanoic acid]	0.016	0.048	> 10000	2600 ± 1400	> 10000	–	–	–
C[C@@H](NC(=O)Cn1c(CCC(=O)O)nc2c(Cl)cccc2c1=O)c1c(F)cccc1F [compound 16, (R)-3-(8-chloro-3-(2-((1-(2,6-difluorophenyl)ethyl)amino)-2-oxoethyl)-4-oxo-3,4-dihydroquinazolin-2-yl)propanoic acid]	> 5	–	–	–	–	> 10000	> 10000	> 10000
